Assays:
SARS-CoV-2 3CL-protease = SARS-CoV-2 3CL-protease (Severe acute respiratory syndrome coronavirus 2 (2019-nCoV) (SARS-CoV-2), UniProt P0DTD1); test: SARS-CoV-2 3C-Like (3CL) Protease Fluorescence Assay (FRET); assay type: biochemical
[1] = system: 229E human corona virus (hCoV); test: 229E Live Virus Assay (MRC-5 cells, CPE, ATPlite readout); assay type: cell-based, hCoV-229E; conditions: MRC-5 cells, hCoV-229E MOI 0.05, 6 days at 34° C., ATPlite, duplicate; ranges defined in μM; read-out: 229E EC50

Row | SMILES | IC50 (SARS-CoV-2 3CL-protease) [µM] | EC50 [1] [µM]
1 | CC(C)(C)C[C@H](NC(=O)[C@H](CC1CC1)NC(=O)C1(c2ccccc2)CC1)C(=O)N1C[C@]2(C[C@H]1C#N)C(=O)Nc1ccccc12 [Example 71] | < 0.1 | 
2 | CN(C(=O)[C@H](CC1CC1)NC(=O)c1cc(OC(F)(F)F)c2ncccc2c1)[C@@H](CC(C)(C)C)C(=O)N1C[C@]2(C[C@H]1C#N)C(=O)Nc1ccccc12 [Example 125] | < 0.1 | 
3 | CC(C)(C)C[C@H](NC(=O)[C@H](CC1CC1)n1cc(C2CC2)nn1)C(=O)N1C[C@]2(C[C@H]1C#N)C(=O)Nc1ccccc12 [Example 53] | < 0.1 | 
4 | CC(C)(C)C[C@H](NC(=O)[C@H](CC1CC1)NC(=O)N1CCOCC1)C(=O)N1C[C@]2(C[C@H]1C#N)C(=O)Nc1ccccc12 [Example 84] | < 0.1 | 
5 | CC(C)(C)C[C@H](NC(=O)[C@H](CC1CC1)NC(=O)c1ccc(F)cc1)C(=O)N1C[C@]2(C[C@H]1C#N)C(=O)Nc1ccccc12 [Example 97] | < 0.1 | 
6 | Cc1cc(C(=O)N[C@@H](CC2CC2)C(=O)N[C@@H](CC(C)(C)C)C(=O)N2C[C@]3(C[C@H]2C#N)C(=O)Nc2ccccc23)no1 [Example 99] | < 0.1 | 
7 | CC(C)(C)C[C@H](NC(=O)[C@H](CC1CC1)NS(=O)(=O)C1CC1)C(=O)N1C[C@]2(C[C@H]1C#N)C(=O)Nc1ccccc12 [Example 37] | < 0.1 | 
8 | CC(C)(C)C[C@H](NC(=O)[C@H](CC1CC1)N1CCOC1=O)C(=O)N1C[C@]2(C[C@H]1C#N)C(=O)Nc1ccccc12 [Example 119] | < 0.1 | 
9 | CC(C)(C)C(NC(=O)C(F)(F)F)C(=O)N1CCC[C@H]1C(=O)N1C[C@]2(C[C@H]1C#N)C(=O)Nc1ccccc12 (stereo partly shown) [Example 102] | > 1 | 
10 | CN(C(=O)[C@H](CC1CC1)NC(=O)c1cc(F)c2nn(C3CC3)cc2c1)[C@@H](CC(C)(C)C)C(=O)N1C[C@]2(C[C@H]1C#N)C(=O)Nc1ccccc12 [Example 127] | < 0.1 | 
11 | CC(C)(C)C[C@H](NC(=O)[C@H](CC1CC1)NC(=O)C(F)(F)c1ccccc1)C(=O)N1C[C@]2(C[C@H]1C#N)C(=O)Nc1ccccc12 [Example 79] | < 0.1 | 
12 | CC(C)C[C@@H](C(=O)N1C[C@]2(C[C@H]1C#N)C(=O)Nc1ccccc12)N(C)C(=O)[C@@H](NC(=O)C(F)(F)F)c1ccccc1 [Example 116] | < 0.1 | 
13 | Cc1ncc(C(=O)N[C@@H](CC2CC2)C(=O)N[C@@H](CC(C)(C)C)C(=O)N2C[C@]3(C[C@H]2C#N)C(=O)Nc2ccccc23)s1 [Example 100] | < 0.1 | 
14 | CC(C)(C)C[C@H](NC(=O)[C@H](CC1CC1)NC(=O)C(F)(F)F)C(=O)N1C[C@]2(C[C@H]1C#N)C(=O)Nc1ccccc12 [Example 96] | < 0.1 | 
15 | CC(C)C[C@@H](C(=O)N1C[C@]2(C[C@H]1C#N)C(=O)Nc1ccccc12)N(C)C(=O)[C@H](NC(=O)C(F)(F)F)c1ccccc1 [Example 117] | < 0.1 | 
16 | CN(C(=O)[C@H](CC1CC1)NC(=O)c1cc2c(F)cc(F)c(F)c2[nH]1)[C@@H](CC(C)(C)C)C(=O)N1C[C@]2(C[C@H]1C#N)C(=O)Nc1ccccc12 [Example 126] | < 0.1 | 
17 | CN(C)[C@@H](CC1CC1)C(=O)N(C)[C@@H](CC(C)(C)C)C(=O)N1C[C@]2(C[C@H]1C#N)C(=O)Nc1ccccc12 [Example 132] | 0.1 to 1 | 
18 | CC(C)(C)C[C@H](NC(=O)[C@H](CC1CC1)NC(=O)N1CCCCC1)C(=O)N1C[C@]2(C[C@H]1C#N)C(=O)Nc1ccccc12 [Example 101] | < 0.1 | 
19 | CC(C)(C)C[C@H](NC(=O)[C@H](CC1CC1)NC(=O)c1cnccn1)C(=O)N1C[C@]2(C[C@H]1C#N)C(=O)Nc1ccccc12 [Example 98] | < 0.1 | 
20 | CC(C)(C)C[C@H](NC(=O)[C@H](CC1CC1)NC(=O)NC1CC1)C(=O)N1C[C@]2(C[C@H]1C#N)C(=O)Nc1ccccc12 [Example 38] | < 0.1 | 
21 | Cc1cc(C(=O)N[C@@H](Cc2ccc(F)cc2)C(=O)N[C@@H](CC(C)(C)C)C(=O)N2C[C@]3(C[C@H]2C#N)C(=O)Nc2ccccc23)no1 [Example 105] | < 0.1 | 
22 | CC(=O)N[C@@H](Cc1ccc(F)cc1)C(=O)N(C)[C@@H](CC(C)(C)C)C(=O)N1C[C@]2(C[C@H]1C#N)C(=O)Nc1ccccc12 [Example 103] | < 0.1 | 
23 | CC(C)[C@H](NS(=O)(=O)c1ccc(F)cc1)C(=O)N(C)[C@@H](CC(C)(C)C)C(=O)N1C[C@]2(C[C@H]1C#N)C(=O)Nc1ccccc12 [Example 111] |  | 0.1 to 1
24 | CC(C)C[C@@H](C(=O)N1C[C@]2(C[C@H]1C#N)C(=O)Nc1ccccc12)N(C)C(=O)[C@H](C)NC(=O)c1ccc(F)cc1 [Example 135] | < 0.1 | 
25 | CC(=O)N[C@@H](C)C(=O)N(C)[C@@H](CC(C)(C)C)C(=O)N1C[C@]2(C[C@H]1C#N)C(=O)Nc1ccccc12 [Example 129] | < 0.1 | 

Source: patent US11325916B1, “Spiropyrrolidine derived antiviral agents” (priority 2021, dated 2022)
